Measured values taken from patent US20050267076A1 (priority 2004, published 2005).
Like-named read-outs stand apart in the source and are kept apart here.

Columns and labels:
Long-Evans rats = assay: 8 hour retention test on a twelve-arm radial maze (spatial memory); format: in vivo, rat; settings: vs vehicle, t(11)=2.69, p<0.02
Method: 12-arm maze test: Behavioral testing was conducted by an experimenter who was blind to drug treatment. 12 Long-Evans rats trained to use a win-shift strategy were given an information trial. During the information trial, 5 of the 12 arms of the 12 arm maze were blocked so that rats were not able to consume food from those blocked arms but could obtain food from each of the 7 open arms. After this session rats were moved to their home cage and placed back in the animal holding room. […] A retroactive memory error is made when the rat enters an arm that was […] on the information trial.
12 rats (divided into three groups) were used in the experiment. Sixty minutes prior to the information session, the rats were injected intraperitoneally (IP) with 150 mg/kg ABPA (Saegis Pharmaceuticals, Inc.), 3 mg/kg donepezil, or combination of 150 mg/kg ABPA and 3 mg/kg donepezil. Physiological saline (NaCl) was used as vehicle. Treatment order was counterbalanced among three groups such that each group (N=4) received a different order of vehicle, ABPA, donepezil, and ABPA+donepezil injection across days, for a total of three tests for each treatment in all subjects.

rats = format: in vivo, rat; settings: for performance in the object recognition task: vs saline; for Recognition Score: saline 61%
Method: The experimental protocol is as follows:
[…]. Both drugs were administered by intraperitoneal (IP) injection. […].

humans = settings: cited from earlier work
[1] = cited from earlier work
[2] = in vivo; cited from earlier work

COc1cc2c(cc1OC)C(=O)C(CC1CCN(Cc3ccccc3)CC1)C2 (racemic) [donepezil, (±)-2,3-dihydro-5,6-dimethoxy-2-[[1-(phenylmethyl)-4-piperidinyl]methyl]-1H-inden-1-one, reference compound]
retention test performance on the 12-arm maze (Long-Evans rats; 3 mg/kg donepezil IP 60 min prior to information session): improved performance
performance in the object recognition task (rats; donepezil 1.7 mg/kg IP 30 min prior to information trial): significantly improved performance
Recognition Score (rats; donepezil alone at 0.56 mg/kg): 62%
Recognition Score (rats; donepezil alone at 1 mg/kg): 63%
cognitive effect in Alzheimer's Disease patients (humans; Barner and Gray, 1998, Rogers and Friedhoff): slight cognitive improvements
side effect profile in humans (humans; human, in vivo): cholinergic side effect profile

CCCCP(=O)(O)CCCN [ABPA, 3-aminopropyl-(n-butyl)-phosphinic acid]
retention test performance on the 12-arm maze (Long-Evans rats; 150 mg/kg ABPA IP 60 min prior to information session): improved performance
performance in the object recognition task (rats; ABPA 3 and 30 mg/kg IP 30 min prior to information trial, delay of 6 hours): no beneficial effect
performance in the object recognition task (rats; ABPA 10, 100, 170, and 300 mg/kg IP 30 min prior to information trial, delay of 6 hours): significantly enhanced performance
Recognition Score (rats; ABPA alone at 3 mg/kg): 61%
Recognition Score (rats; ABPA alone at 10 mg/kg): 70%
water solubility [1]: highly water-soluble
blood brain barrier crossing [2]: readily crosses the blood brain barrier
